Data reported in publication PMC4464647, “ANO1 (TMEM16A) in pancreatic ductal adenocarcinoma (PDAC)” (Pflugers Archiv, 2014).

Tests used:
Type in all cases: cell-based, human
[1] = test system: HPDE cells; assay: Fura-2 measurement of free intracellular calcium, ATP stimulation; details: ATP 10 μM, no inhibitor
Procedure: (§1) HPDE and BxPC-3 cells were incubated with 2 μM Fura-2 AM (Sigma-Aldrich, Denmark) for 30 min at 37 °C. Cells were subsequently washed with Krebs solution containing (in mM) 150 NaCl, 6 KCl, 1.5 CaCl2, 1 MgCl2, 10 glucose, and 10 HEPES; pH was adjusted to 7.4 using NaOH. Coverslips were mounted on a recording chamber. In the beginning of the experiment, cells were perfused with Krebs solution at 4 ml/min until baseline was stable. […] Changes in [Ca^2+]i were measured by a TIRF iMIC microscope (TILL Photonics, Germany). Fura-2 AM loaded cells were illuminated at 340 nm for 80 ms and 380 nm for 80 ms at 1 s intervals using a TILL Polychrome monochromator. Five hundred-nanometer emission images were captured by an image-intensifying, charge-coupled device (CCD) camera (TILL Photonics, Germany) and digitized by an image processing system (TILL Photonics, Germany). The monochromator and CCD camera were controlled by LA Live Acquisition software, which was also used for image analysis. The [Ca^2+]i was presented as the Fura-2 ratio of the fluorescence signals obtained at 340/380 nm.
(§2) Fig. 8 Cl^− channel inhibitors alter ATP-induced Ca^2+ signals. Intracellular Ca^2+ measurements in FURA-2 loaded HPDE and BxPC-3 cells. a Representative single-cell traces of individual experiments. Different substances were applied as indicated. […] (n) = number of individual experiments; each containing between 5–45 single cells.***p ≤ 0.001 when compared to no inhibitor condition; ^## p ≤ 0.01 when compared with HPDE no inhibitor
(§3) Activation of CaCC requires an increase in [Ca^2+]i, which can be achieved by stimulation of receptors such as purinergic receptors. Therefore, we studied the effect of Cl^− channel inhibitors on changes in [Ca^2+]i induced by purinergic signaling. We chose HPDE cells with very low expression levels of ANO1 and the highly ANO1 overexpressing cell line BxPC-3 for investigation. Fura-2 loaded HPDE and BxPC-3 cells were stimulated with ATP (10 μM) (Fig. 8) or exposed to the inhibitor prior to stimulation. ATP stimulation caused a 0.46 ± 0.03 peak increase in the Fura-2 ratio in HPDE and 0.55 ± 0.02 in BxPC-3 cells. […] However, no effect of the inhibitor on basal Ca^2+ level was observed.

[2] = test system: BxPC-3 cells; assay: as above; details: BxPC-3, ATP 10 μM, no inhibitor
Procedure: as §1, §2, §3

[3] = test system: HPDE, Capan-1, AsPC-1, and BxPC-3 cells; assay: BrdU incorporation cell proliferation assay, all tested cell lines; details: all tested cells, gemcitabine 20 μM, data not shown
Procedure: To assess cell proliferation and apoptosis, cells were plated in duplicates on a 96-well plate and incubated in 100 μl of the cell line appropriate media described above. Cells were transfected with siRNA soon after complete attachment (approx. 3 h after seeding). Cells were treated with vehicle, 20 μM gemcitabine, 20 μM T16Ainh-A01, or 10 μM free NS3728 (see below) after culture in a humidified 37 °C and 5 % CO2 incubator overnight. BrdU incorporation was measured using Cell Proliferation ELISA, BrdU (chemiluminescent) (Roche Diagnostics A/S, Denmark) following the manufacturer’s instructions. Caspases 3, 6, and 7 activation was evaluated using Homogeneous Caspases Assay (fluorimetric) (Roche Diagnostics A/S, Denmark).
Fig. 7 VRAC, but not ANO1, regulates cellular proliferation. a Summary of BrdU incorporation in HPDE, Capan-1, AsPC-1, and BxPC-3 cells after various treatments as indicated. Cells were transfected shortly after complete attachment (approx. 3 h) and BrdU incorporation was assessed 36 h after transfection. To investigate effect of inhibitors, cells were incubated for 24 h with respective inhibitor. Values shown are relative to appropriate control. Data shown represents mean ± s.e.m. of n = 4–6 individual experiments. **p ≤ 0.01 and ***p ≤ 0.001 when compared with control

Row | SMILES | peak increase in the Fura-2 ratio [1] | peak increase in the Fura-2 ratio [2] | proliferation (BrdU incorporation) [3]
1 | Nc1ncnc2c1ncn2[C@@H]1O[C@H](COP(=O)(O)OP(=O)(O)OP(=O)(O)O)[C@@H](O)[C@H]1O [ATP] | 0.46 ± 0.03 | 0.55 ± 0.02 | 
2 | Nc1ccn([C@@H]2O[C@H](CO)[C@@H](O)C2(F)F)c(=O)n1 [gemcitabine] |  |  | almost complete inhibition of proliferation
